One block for each molecule: values may come before it.
Legend:
[1] = molecular target: Recombinant murine (rm) Notch1 (murine) (UniProt Q01705); assay: SPR; as a1, same HS-NTA sensor with rmNotch1; rmDLL4 at all concentrations preincubated with 1 ug/mL NDI for 30 minutes at room temperature before injection; 40 uL/min, 20°C; global 1:1 fit
[2] = molecular target: Recombinant murine (rm) Notch1 (murine) (UniProt Q01705); assay: SPR; OpenSPR (Nicoya), HS-NTA sensor activated with NiCl2; rmNotch1 (25 ug/mL) immobilised on channel 2; rmDLL4 as analyte at 5, 12.5, 50 and 100 nM, 40 uL/min; PBS, 0.005% P20, pH 7.4; channel 1 subtracted; global 1:1 fit
ZBP1 [3] = assay: ZBP1 mRNA in PVECs cocultured with neutrophils, RT-PCR (DAPT, NDI, peptides 1–5); assay type: cell-based, mouse; settings: DAPT, DLL4^+ neutrophil–PVEC coculture
Method: Immortalized mouse (Mus musculus) lung endothelial cells with polyoma middle T (PVECs) were purchased from Applied Biological Materials Inc. (ABM) and grown in 1:1 PriGrow VI Medium and PriGrow IV Medium (ABM).
(§1) Wild-type PVECs (5 × 10^5) were cocultured with sorted DLL4^+ neutrophils (5 × 10^5) or DLL4^– neutrophils (5 × 10^5) and then treated with different dosages of peptides or 10 μM DAPT (Thermo Fisher Scientific), 10 μM NDI (GenScript), or 10 μM NDI scramble (GenScript). Notch1-knockdown PVECs (5 × 10^5) were cocultured with sorted DLL4^+ neutrophils (5 × 10^5). After 16 hours, neutrophils were washed away by PBS, and PVECs were collected for further experiments. Cell viability was evaluated by propidium iodide staining using the FITC Annexin V Apoptosis Detection Kit I (catalog 556547, BD Pharmingen). Cell death was quantified as the percentage of propidium iodide–positive cells by flow cytometry.
mRNA was extracted from lung tissues with TRIzol reagent (Invitrogen, Thermo Fisher Scientific). An equal amount ([…]) of mRNA was reverse-transcribed into cDNA using the reverse transcriptase enzyme (Invitrogen, Thermo Fisher Scientific). qPCR was performed from the diluted cDNA templates with forward and reverse primers (Supplemental Table 4) and SYBR Green PCR Master Mix (Applied Biosystems, Thermo Fisher Scientific) using an Applied Biosystems 7300 real-time PCR machine. Mouse β-actin served as an internal control gene for normalization. Relative expression of mRNA was represented as fold change in comparison with the sham group.

ZBP1 [4] = assay: ZBP1 protein in PVECs cocultured with neutrophils, Western blot; assay type: cell-based, mouse; settings: DAPT
Method: as §1
(§2) PVECs and lung tissue were collected in previous steps. Whole-cell proteins were extracted, and the protein concentration was measured using an ABC protein assay kit (catalog 5000002, Bio-Rad). Proteins were separated using NuPAGE 4%–12% Bis-Tris gels (Invitrogen), transferred to PVDF membranes, and immunoblotted with the antibodies indicated in the figure legends according to the manufacturer’s recommendations. The ZBP1 antibody (catalog PA5-20455; 1:1,000) used in this study was obtained from Thermo Fisher Scientific, and the c-GSDMD (catalog 10137S; 1:250), GSDMD (catalog 39754S; 1:1000), c-caspase-3 (catalog 9661L; 1:250), caspase-3 (catalog 9662S; 1:1,000), p-MLKL (catalog 37333S; 1:250), MLKL (catalog 37705S; 1:1,000), N1ICD (c-Notch1) (catalog 4147S; 1:250), and Notch1 (catalog 3608S; 1:1,000) antibodies were obtained from Cell Signaling Technology. GAPDH (catalog 60004-1-Ig; 1:10,000) and β-actin (catalog A5441, Sigma-Aldrich; 1:5,000) were obtained from ProteinTech. After the blots were incubated with primary antibodies, the membranes were washed 3 times, and the blots were subsequently incubated with the corresponding fluorescent secondary antibody (LI-COR). Bands were detected using an Odyssey FC Dual-Mode Imaging system 2800 (LI-COR).

c-GSDMD = assay: c/t GSDMD (pyroptosis) in PVECs cocultured with neutrophils, Western blot; assay type: cell-based, mouse; settings: DAPT
Method: as §1, §2

c-caspase-3 = assay: c/t caspase-3 (apoptosis) in PVECs cocultured with neutrophils, Western blot; assay type: cell-based, mouse; settings: DAPT
Method: as §1, §2

p-MLKL = assay: p-MLKL/MLKL (necroptosis) in PVECs cocultured with neutrophils, Western blot; assay type: cell-based, mouse; settings: DAPT
Method: as §1, §2

rmNotch1 = molecular target: T1, rmNotch1 (Mus musculus, UniProt Q01705); assay: BIAcore assay (surface plasmon resonance), rmDLL4 to immobilized rmNotch1; assay type: binding, murine; settings: OpenSPR, HS-NTA sensor, rmDLL4 5–100 nM, PBS 0.005% P20 pH 7.4, 20°C, 1:1 fit; without NDI; read-out: KD between DLL4 and Notch1
T1 construct: purchased R&D Systems 5267-TK (rmNotch1); 1389-D4-050/CF (rmDLL4)
Method: To determine rmDLL4’s direct interaction with rmNotch1, surface plasmon resonance (OpenSPR, Nicoya) was performed. High-sensitivity nitrilotriacetic acid (HS-NTA) sensors were used. Binding reactions were performed in running buffer (PBS, 0.005% P20, pH 7.4). The HS-NTA sensor was first cleaned by injection with 10 mM HCl (150 μL) followed by injection of 150 μL of 350 mM EDTA. […] For the effect of NDI efficacy on rmDLL4 binding to rmNotch1, the same HS-NTA sensor was used. rmDLL4 at all the concentrations used for binding with rmNotch1 was preincubated with 1 μg/mL NDI for 30 minutes at room temperature, and then the complexes were injected to channels 1 and 2. Binding reactions were carried out with the same running buffer at a flow rate of 40 μL/min at 20°C. Channel 1 was used as a control to evaluate nonspecific binding. The real-time interaction data were analyzed by Trace Drawer (Nicoya). The signals from channel 1 were subtracted from channel 2 coated with the ligand for all samples. Data were globally fitted for 1:1 binding (one-to-one model).

[5] = DLL4^+ neutrophil–stimulated PVECs
[6] = DLL4^– neutrophil–treated PVECs

Chain of Recombinant murine (rm) Notch1 (murine) (Q01705 19-2531): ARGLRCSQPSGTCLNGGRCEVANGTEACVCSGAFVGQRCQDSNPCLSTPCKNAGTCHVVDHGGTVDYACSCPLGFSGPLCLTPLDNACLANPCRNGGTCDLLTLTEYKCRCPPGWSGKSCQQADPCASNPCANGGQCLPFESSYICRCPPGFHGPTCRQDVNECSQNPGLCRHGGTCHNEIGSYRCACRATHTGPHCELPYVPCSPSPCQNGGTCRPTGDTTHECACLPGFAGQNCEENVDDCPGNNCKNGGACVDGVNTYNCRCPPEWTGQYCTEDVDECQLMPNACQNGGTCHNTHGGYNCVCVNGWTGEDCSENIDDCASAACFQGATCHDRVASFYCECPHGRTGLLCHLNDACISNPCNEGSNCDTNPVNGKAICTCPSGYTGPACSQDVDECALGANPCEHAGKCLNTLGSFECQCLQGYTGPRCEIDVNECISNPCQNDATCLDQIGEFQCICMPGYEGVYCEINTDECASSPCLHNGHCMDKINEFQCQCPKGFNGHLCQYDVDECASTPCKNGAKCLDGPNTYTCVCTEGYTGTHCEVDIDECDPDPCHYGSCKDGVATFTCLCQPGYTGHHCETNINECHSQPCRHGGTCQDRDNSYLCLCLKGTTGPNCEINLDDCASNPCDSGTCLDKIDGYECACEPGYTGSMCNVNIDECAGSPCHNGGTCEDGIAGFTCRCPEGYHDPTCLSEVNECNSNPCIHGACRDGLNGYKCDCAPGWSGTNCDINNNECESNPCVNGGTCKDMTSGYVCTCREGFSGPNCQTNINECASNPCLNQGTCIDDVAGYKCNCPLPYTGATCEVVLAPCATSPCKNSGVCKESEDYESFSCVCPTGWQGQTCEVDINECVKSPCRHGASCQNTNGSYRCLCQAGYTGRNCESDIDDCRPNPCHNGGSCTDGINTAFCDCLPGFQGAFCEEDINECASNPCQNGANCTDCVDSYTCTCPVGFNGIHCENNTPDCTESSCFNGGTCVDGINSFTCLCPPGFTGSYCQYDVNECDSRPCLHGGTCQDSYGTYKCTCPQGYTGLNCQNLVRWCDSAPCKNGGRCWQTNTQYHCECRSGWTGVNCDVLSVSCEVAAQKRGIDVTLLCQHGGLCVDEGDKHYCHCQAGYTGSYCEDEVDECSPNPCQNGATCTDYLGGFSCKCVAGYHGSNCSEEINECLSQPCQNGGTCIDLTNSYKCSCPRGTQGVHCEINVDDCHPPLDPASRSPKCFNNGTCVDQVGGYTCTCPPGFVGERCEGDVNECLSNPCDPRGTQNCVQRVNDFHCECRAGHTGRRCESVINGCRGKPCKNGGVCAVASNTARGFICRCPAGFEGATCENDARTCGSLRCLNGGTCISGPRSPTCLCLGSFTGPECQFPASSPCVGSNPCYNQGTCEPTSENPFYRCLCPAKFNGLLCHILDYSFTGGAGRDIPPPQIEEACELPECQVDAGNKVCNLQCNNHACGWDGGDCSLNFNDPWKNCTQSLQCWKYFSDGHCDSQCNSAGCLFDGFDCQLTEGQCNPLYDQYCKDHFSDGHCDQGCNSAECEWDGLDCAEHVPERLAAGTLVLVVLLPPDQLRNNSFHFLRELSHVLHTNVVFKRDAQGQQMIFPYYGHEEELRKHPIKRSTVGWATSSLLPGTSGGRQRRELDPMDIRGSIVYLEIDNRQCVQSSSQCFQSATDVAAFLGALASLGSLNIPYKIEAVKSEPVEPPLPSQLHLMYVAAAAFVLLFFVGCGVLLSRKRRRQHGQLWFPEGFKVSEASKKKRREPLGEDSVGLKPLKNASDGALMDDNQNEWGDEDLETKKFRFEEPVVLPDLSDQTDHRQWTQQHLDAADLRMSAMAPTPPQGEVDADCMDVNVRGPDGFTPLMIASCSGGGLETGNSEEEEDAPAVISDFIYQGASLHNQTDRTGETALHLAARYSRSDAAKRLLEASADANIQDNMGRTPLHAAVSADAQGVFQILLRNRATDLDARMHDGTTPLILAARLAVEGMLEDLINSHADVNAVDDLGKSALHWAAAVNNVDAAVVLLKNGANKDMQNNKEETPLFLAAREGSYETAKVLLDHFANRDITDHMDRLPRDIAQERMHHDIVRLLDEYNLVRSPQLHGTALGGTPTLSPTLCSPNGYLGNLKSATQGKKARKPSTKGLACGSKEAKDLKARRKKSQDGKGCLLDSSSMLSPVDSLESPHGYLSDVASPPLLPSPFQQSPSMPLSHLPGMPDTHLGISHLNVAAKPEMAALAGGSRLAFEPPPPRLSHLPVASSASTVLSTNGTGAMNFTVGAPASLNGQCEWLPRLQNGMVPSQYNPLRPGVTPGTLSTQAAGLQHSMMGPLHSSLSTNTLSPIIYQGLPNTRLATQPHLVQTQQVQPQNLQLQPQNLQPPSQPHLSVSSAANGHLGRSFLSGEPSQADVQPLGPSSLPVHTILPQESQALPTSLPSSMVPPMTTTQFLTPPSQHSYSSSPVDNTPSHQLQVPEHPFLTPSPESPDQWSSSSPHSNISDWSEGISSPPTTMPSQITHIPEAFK
T1 sequence (Q01705 with tags, fused parts or gaps limits assumed, one chain of several): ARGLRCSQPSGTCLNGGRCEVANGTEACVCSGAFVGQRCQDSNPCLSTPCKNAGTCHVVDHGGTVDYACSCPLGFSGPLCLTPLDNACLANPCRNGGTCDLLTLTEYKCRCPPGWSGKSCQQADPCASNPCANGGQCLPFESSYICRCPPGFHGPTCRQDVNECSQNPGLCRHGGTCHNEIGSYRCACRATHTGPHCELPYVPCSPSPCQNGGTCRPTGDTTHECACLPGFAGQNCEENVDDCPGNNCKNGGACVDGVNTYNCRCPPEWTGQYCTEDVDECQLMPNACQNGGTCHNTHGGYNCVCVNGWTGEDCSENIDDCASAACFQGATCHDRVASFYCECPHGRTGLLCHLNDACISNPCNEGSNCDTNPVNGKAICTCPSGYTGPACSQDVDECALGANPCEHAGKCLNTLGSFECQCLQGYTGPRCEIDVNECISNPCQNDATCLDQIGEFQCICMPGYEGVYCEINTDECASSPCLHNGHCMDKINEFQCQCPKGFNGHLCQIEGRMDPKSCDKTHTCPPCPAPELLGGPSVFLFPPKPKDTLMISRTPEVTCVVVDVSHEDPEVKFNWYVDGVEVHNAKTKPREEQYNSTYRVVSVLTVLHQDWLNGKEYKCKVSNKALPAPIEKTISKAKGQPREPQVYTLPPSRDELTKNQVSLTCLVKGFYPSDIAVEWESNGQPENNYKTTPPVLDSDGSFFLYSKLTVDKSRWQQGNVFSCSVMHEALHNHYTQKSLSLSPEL

KD with NDI present [1]: 237 nM
Kd [2]: 42.6 nM
Molecule: Recombinant murine (rm) DLL4 (from UniProt Q9JI71 27-532) (ligand)

Molecule: C[C@H](NC(=O)Cc1cc(F)cc(F)c1)C(=O)N[C@H](C(=O)OC(C)(C)C)c1ccccc1 [DAPT, N-[N-(3,5-difluorophenacetyl)-L-alanyl]-S-phenylglycine t-butyl ester, reference compound]
effect on ZBP1 mRNA (ZBP1 [3]): reduced it to the baseline levels
effect on ZBP1 (ZBP1 [4]; [5]): significantly reduced the elevated expression
effect on ZBP1 (ZBP1 [4]; [6]): did not significantly reduce
effect on c-GSDMD (c-GSDMD; [5]): significantly reduced the elevated expression
effect on c-GSDMD (c-GSDMD; [6]): did not significantly reduce
effect on c-caspase-3 (c-caspase-3; [5]): significantly reduced the elevated expression
effect on c-caspase-3 (c-caspase-3; [6]): did not significantly reduce
effect on p-MLKL (p-MLKL; [5]): significantly reduced the elevated expression
effect on p-MLKL (p-MLKL; [6]): did not significantly reduce

Kd (rmNotch1): 42.6 nM
B1: DLL4: Recombinant murine DLL4, R&D Systems (protein)
chain: GSGIFQLRLQEFVNQRGMLANGQSCEPGCRTFFRICLKHFQATFSEGPCTFGNVSTPVLGTNSFVVRDKNSGSGRNPLQLPFNFTWPGTFSLNIQAWHTPGDDLRPETSPGNSLISQIIIQGSLAVGKIWRTDEQNDTLTRLSYSYRVICSDNYYGESCSRLCKKRDDHFGHYECQPDGSLSCLPGWTGKYCDQPICLSGCHEQNGYCSKPDECICRPGWQGRLCNECIPHNGCRHGTCSIPWQCACDEGWGGLFCDQDLNYCTHHSPCKNGSTCSNSGPKGYTCTCLPGYTGEHCELGLSKCASNPCRNGGSCKDQENSYHCLCPPGYYGQHCEHSTLTCADSPCFNGGSCRERNQGSSYACECPPNFTGSNCEKKVDRCTSNPCANGGQCQNRGPSRTCRCRPGFTGTHCELHISDCARSPCAHGGTCHDLENGPVCTCPAGFSGRRCEVRITHDACASGPCFNGATCYTGLSPNNFVCNCPYGFVGSRCEFPVGLPPSFPWVA
